Measured values taken from the NIST ThermoML archive (doi:10.1021/je7005538).
Several values for one entry are separate records, joined by “and”; a condition that tells them apart may be missing. Equal values may be shown once. Numbers after ± are expanded uncertainties.

Assay: xn = mol fraction of the nth substance listed
Conditions: Fluid (supercritical or subcritical phases), Vibrating tube method

Cc1c(C)c2c(c(C)c1O)CC[C@@](C)(CCC[C@H](C)CCC[C@H](C)CCCC(C)C)O2 [(+)-α-tocopherol] + O=C=O
mass density
Conditions	x1 = 0.0004	x1 = 0.00042	x1 = 0.00043	x1 = 0.0005	x1 = 0.00059	x1 = 0.00074	x1 = 0.00081
323.15 K, 10000 kPa	398.5 ± 38 kg/m3	398.3 ± 50 kg/m3 and 398.5 ± 50 kg/m3	398.3 ± 25 kg/m3	398.4 ± 5.8 kg/m3	398.8 ± 7 kg/m3	398.9 ± 26 kg/m3	398.7 ± 18 kg/m3
323.15 K, 15000 kPa	703.6 ± 38 kg/m3	703.1 kg/m3 and 703.4 kg/m3	703.4 ± 24 kg/m3	703.5 ± 4.4 kg/m3	703.4 ± 6.9 kg/m3	704.1 ± 25 kg/m3	704.1 ± 18 kg/m3
323.15 K, 20000 kPa	786.2 ± 8.9 kg/m3	785.8 ± 11 kg/m3 and 786 ± 11 kg/m3	786 ± 5.8 kg/m3	786 ± 1.3 kg/m3	786 ± 1.9 kg/m3	786.6 ± 5.8 kg/m3	786.6 ± 4 kg/m3
323.15 K, 30000 kPa	871.2 ± 5.6 kg/m3	870.9 ± 100 kg/m3 and 871.1 ± 100 kg/m3	871 ± 3.6 kg/m3	871.1 ± 1 kg/m3	871.1 ± 1.3 kg/m3	871.5 ± 3.6 kg/m3	871.6 ± 2.5 kg/m3
323.15 K, 40000 kPa	923.3 ± 0.8 kg/m3	923.1 ± 0.8 kg/m3 and 923.3 ± 0.8 kg/m3	923.3 ± 0.8 kg/m3	923.3 ± 0.8 kg/m3	923.2 ± 0.8 kg/m3	923.6 ± 0.8 kg/m3	923.6 ± 0.8 kg/m3
333.15 K, 10000 kPa	297.2 ± 6.3 kg/m3	297.1 ± 6.3 kg/m3 and 296.8 ± 6.3 kg/m3	296.9 ± 6.3 kg/m3	297.1 ± 6.3 kg/m3	297.3 ± 6.3 kg/m3	297.7 ± 6.3 kg/m3	297.7 ± 6.3 kg/m3
333.15 K, 15000 kPa	608.6 ± 52 kg/m3	608.9 ± 69 kg/m3 and 608.8 ± 69 kg/m3	608.7 ± 35 kg/m3	608.7 ± 4.9 kg/m3	609.3 ± 7.8 kg/m3	609.3 ± 35 kg/m3	609.4 ± 24 kg/m3
333.15 K, 20000 kPa	725.7 ± 22 kg/m3	725.6 ± 30 kg/m3 and 725.5 ± 30 kg/m3	725.5 ± 15 kg/m3	725.7 ± 1.8 kg/m3	725.8 ± 3.1 kg/m3	726.1 ± 15 kg/m3	726.2 ± 10 kg/m3
333.15 K, 30000 kPa	830.3 ± 12 kg/m3	830.3 ± 16 kg/m3 and 830.2 ± 16 kg/m3	830.2 ± 8.1 kg/m3	830.3 ± 1.2 kg/m3	830.5 ± 1.9 kg/m3	830.7 ± 7.9 kg/m3	830.7 ± 5.4 kg/m3
333.15 K, 40000 kPa	890.2 ± 0.9 kg/m3	890.2 ± 0.9 kg/m3 and 890.1 ± 0.9 kg/m3	890.1 ± 0.9 kg/m3	890.1 ± 0.9 kg/m3	890.3 ± 0.9 kg/m3	890.5 ± 0.9 kg/m3	890.5 ± 0.9 kg/m3
